Laboratory results from the NIST ThermoML archive (doi:10.1021/je5008789).

Conditions: Liquid; for mass density: Vibrating tube method; for viscosity: Vibrating wire viscometry

CC(C)CCCC(C)CCCC(C)CCCCC(C)CCCC(C)CCCC(C)C (configuration not stated) [2,6,10,15,19,23-hexamethyltetracosane]
Conditions | mass density [kg/m3] | viscosity [mPa·s]
338.19 K, 1050 kPa | 779.26 | 6.815
338.19 K, 21210 kPa | 792.77 | 9.666
338.2 K, 40640 kPa | 803.93 | 13.19
338.2 K, 60420 kPa | 814.29 | 17.71
338.2 K, 79830 kPa | 822.46 | 23.48
338.2 K, 100230 kPa | 831.55 | 30.94
338.2 K, 140240 kPa | 845.12 | 52.3
338.2 K, 161300 kPa | 851.46 | 68.14
338.21 K, 119820 kPa | 837.96 | 40.32
338.22 K, 940 kPa | 778.91 | 6.808
338.29 K, 1010 kPa | 779.46 | 6.83
373.12 K, 620 kPa | 756.02 | 3.122
373.12 K, 780 kPa | 756.09 | 3.125
373.12 K, 20350 kPa | 771.55 | 4.234
373.12 K, 39970 kPa | 784.5 | 5.565
373.12 K, 60030 kPa | 795.89 | 7.219
373.12 K, 80950 kPa | 806.36 | 9.293
373.12 K, 101160 kPa | 815.48 | 11.72
373.12 K, 120420 kPa | 823.57 | 14.4
373.12 K, 140640 kPa | 831.1 | 17.83
373.12 K, 159510 kPa | 837.61 | 21.73
373.12 K, 180460 kPa | 843.98 | 26.77
373.12 K, 201380 kPa | 850.63 | 32.72
388.13 K, 890 kPa | 746.65 | 2.432
388.13 K, 20290 kPa | 762.98 | 3.25
388.13 K, 80490 kPa | 799.25 | 6.828
388.13 K, 101530 kPa | 809.12 | 8.548
388.13 K, 120960 kPa | 817.16 | 10.46
388.13 K, 139900 kPa | 824.59 | 12.58
388.14 K, 1100 kPa | 746.78 | 2.436
388.14 K, 40380 kPa | 776.95 | 4.242
388.14 K, 59850 kPa | 788.53 | 5.392
388.14 K, 160800 kPa | 832.35 | 15.31
388.14 K, 180610 kPa | 838.96 | 18.4
388.14 K, 201470 kPa | 845.55 | 22.16
413.17 K, 1050 kPa | 730.56 | 1.691
413.18 K, 20110 kPa | 748.65 | 2.233
413.18 K, 40280 kPa | 763.94 | 2.885
413.18 K, 60200 kPa | 776.68 | 3.62
413.21 K, 80740 kPa | 788.16 | 4.485
413.22 K, 100350 kPa | 797.82 | 5.454
413.22 K, 120460 kPa | 806.56 | 6.574
413.24 K, 610 kPa | 730.1 | 1.68
413.24 K, 140200 kPa | 815.07 | 7.831
413.25 K, 160570 kPa | 822.8 | 9.322
413.25 K, 181450 kPa | 829.85 | 11.12
413.25 K, 202090 kPa | 836.75 | 13.06
433.18 K, 1120 kPa | 717.8 | 1.324
433.19 K, 60430 kPa | 767.55 | 2.785
433.19 K, 160660 kPa | 815.65 | 6.774
433.19 K, 180700 kPa | 823.09 | 7.891
433.19 K, 200370 kPa | 830.05 | 9.057
433.2 K, 80190 kPa | 779.13 | 3.392
433.21 K, 100280 kPa | 789.84 | 4.072
433.21 K, 120040 kPa | 798.72 | 4.865
433.21 K, 140200 kPa | 807.55 | 5.754
433.31 K, 600 kPa | 717.04 | 1.309
433.35 K, 20500 kPa | 737.74 | 1.749
433.36 K, 680 kPa | 717.22 | 1.309
433.36 K, 40310 kPa | 753.83 | 2.231
452.85 K, 201770 kPa | 823.37 | 6.867
452.95 K, 163170 kPa | 809.3 | 5.261
452.95 K, 180270 kPa | 815.84 | 5.937
453.15 K, 1150 kPa | 704.74 | 1.062
453.16 K, 20190 kPa | 726.4 | 1.405
453.17 K, 40450 kPa | 744.09 | 1.796
453.18 K, 60480 kPa | 758.43 | 2.222
453.18 K, 80140 kPa | 770.59 | 2.681
453.18 K, 100410 kPa | 781.58 | 3.214
453.19 K, 160150 kPa | 808.49 | 5.142
453.2 K, 120790 kPa | 791.61 | 3.8
453.2 K, 140400 kPa | 800.32 | 4.438
453.2 K, 180710 kPa | 816.55 | 5.945
472.81 K, 1050 kPa | 691.59 | 0.867
473.03 K, 200210 kPa | 815.83 | 5.348
473.04 K, 1050 kPa | 691.45 | 0.868
473.05 K, 150 kPa | 690.19 | 0.853
473.05 K, 20040 kPa | 715.2 | 1.151
473.05 K, 39890 kPa | 733.71 | 1.465
473.05 K, 120200 kPa | 783.48 | 3.031
473.05 K, 140440 kPa | 792.71 | 3.531
473.05 K, 160340 kPa | 801 | 4.073
473.05 K, 180470 kPa | 808.83 | 4.671
473.06 K, 60230 kPa | 749.17 | 1.81
473.06 K, 79910 kPa | 761.86 | 2.175
473.07 K, 100370 kPa | 773.42 | 2.59
